Data: patent US11744804B2, “Microcapsule powder stable in gastric acid, method for preparing same, and use thereof” (HOBOOMLIFE BIO-TECHNOLOGY (SHENZHEN) CO., LTD., priority 2021, dated 2023)

Test: Release test in artificial intestinal juice
Type: physicochemical
Settings: for Dissolution rate of core material after 1 h / Dissolution rate of core material after 2 h / Dissolution rate of core material after 3 h / Dissolution rate of core material after 4 h: artificial intestinal juice, 37° C., 100 r/min; for Retention rate of NADH before test: before artificial intestinal juice test
Description: A Tablet Four-Usage Tester was used for testing. The tester was started for preheating. The temperature was set at 37° C. A basket shaft and a basket were installed. A positioning ball used for positioning (marked) was put into a dissolution cup (900 mL of prepared artificial intestinal juice was added into each dissolution cup) and fixed. 200 mg of sample 2 and 200 mg of sample 5 in the examples as well as 200 mg of corresponding core materials were taken respectively, wrapped with gauze and put into corresponding baskets. After being rotated at 100 r/min for 1, 2, 3 and 4 h, 1 mL of liquid was taken from each of the dissolution cups. The contents of the core materials in the samples were detected by the same detection method as in Example 1.
Retention rate of core material=(Theoretical embedding amount of core material in sample-Content of core material in artificial intestinal juice detected)/Theoretical embedding amount of core material in sample. The theoretical embedding amount of the core material in the sample is the added amount of the core material in the sample.

Row | Structure (SMILES) | Dissolution rate of core material after 1 h | Dissolution rate of core material after 2 h | Dissolution rate of core material after 3 h | Dissolution rate of core material after 4 h | Retention rate of NADH before test
1 | NC(=O)C1=CN([C@@H]2O[C@H](COP(=O)(O)OP(=O)(O)OC[C@H]3O[C@@H](n4cnc5c(N)ncnc54)[C@H](O)[C@@H]3O)[C@@H](O)[C@H]2O)C=CC1 [NADH, reduced nicotinamide adenine dinucleotide] | 99.6% | 99.5% | 99.4% | 99.5% | 100%
2 | NC(=O)C1=CN([C@@H]2O[C@H](COP(=O)(O)OP(=O)(O)OC[C@H]3O[C@@H](n4cnc5c(N)ncnc54)[C@H](OP(=O)(O)O)[C@@H]3O)[C@@H](O)[C@H]2O)C=CC1 [NADPH, reduced nicotinamide adenine dinucleotide phosphate] | 98.4% | 99.7% | 99.3% | 99.1% | 100%
